Results on 2 compounds are retold here after patent publication US4567169A, “Nitrosourea substituted phosphonates and pharmaceutical use” (priority 1982, dated 1986).

For data set [1], the system named is tumour-bearing mice (tumorous cells inoculated by intraperitoneal or intramuscular route). The data set is described as follows: capacity to increase the life-span of mice bearing tumorous cells (NCI protocols, Geran et al.). It counts as in vivo. Conditions: 5 mg/kg. The procedure: The compounds according to the invention are tested by their capacity to increase the life-span of mice bearing tumorous cells inoculated by intraperitoneal or intramuscular route in accordance with the protocols edicted by the National Cancer Institute (U.S.A.) and published by R. I. GERAN et al. in Cancer Chemotherapy Reports 1972, part III, Vol. 3 (2), 1-87.
Given per os, these compounds increase the life-span of tumor-bearing animals. The rate of effectiveness of the active doses per os over the active dose by intraperitoneal route is greater for the compounds according to the invention than for the reference products (F. SPREAFICO et al. in Nitrosoureas: current status and new developments, A. W. PRESTAYKO et al. editors, 1981, Academic Press (New York); Experimental Evaluation of Antitumor Drugs in the USA and USSR and clinical correlations; National Cancer Institute Monograph No. 55; National Institutes of Health USA 1980).

Data set [2] has as its system pulmonary metastases. The data set can be described thus: antimetastatic capacity: reduction in number and weight of pulmonary metastases developed after intramuscular inoculation of carcinoma cells. It counts as in vivo. Conditions: 10 mg/kg as a curative treatment for 9 days. As to the method:
The antimetastatic capacity of the compounds of the present invention is measured by the reduction, compared with untreated animals, in the number and weight of pulmonary metastases developed after intramuscular inoculation of carcinoma cells.

Data set [3] deals with pyruvic glutamic transaminase. The data set can be described thus: hepatic toxicity (Wroblewski's method), pyruvic glutamic transaminase activity in serum. In kind it is in vivo, Long Evans rats. As to the method: The hepatic toxicity is assessed according to Wroblewski's method by measuring the pyruvic glutamic transaminase activity contained in the serum from Long Evans rats treated with an intraperitoneal injection of 25 mg/kg of BCNU or with equipotential doses of the compounds according to the invention.

With `CCOP(=O)(OCC)C(C)NC(=O)N(CCCl)N=O` (stereo not shown) [Example 4, 1-[N-(2-chloroethyl)-N-nitrosoureido]ethylphosphonic acid diethyl ester], the long-term survivors result in data set [1] is given as “inducing long-term survivors”. For the same compound, the formation of metastases result in data set [2] is reported as “prevents the formation of metastases”. In data set [3] (25 mg/kg, Long Evans rats), the “serum pyruvic glutamic transaminase level” value is “does not lead to an increase in the enzyme level outside the range usually found in untreated rats”.

Take `O=NN(CCCl)C(=O)NCCCl` [BCNU, N-N'-bis(2-chloroethyl)-N-nitrosourea, reference compound]: in data set [3] (intraperitoneal injection of 25 mg/kg of BCNU or equipotential doses of the compounds), the hepatic toxicity entry is recorded as “notable hepatic toxicity”.
